These results are taken from PubChem BioAssay (NCI).

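Cultured in 96-well plates, cells were exposed to test compound for 48 hours across five concentrations. GI50: concentration for 50% inhibition of growth. Definition used: TGI = concentration required for complete inhibition of growth.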

What all share (assay): inhibition of tumour cell growth, NCI panel, 48 h
Test [1] concerns SF-539 CNS.
For test [2], the system named is NCI-H460 lung.
In test [3] the test system is SK-OV-3 ovarian.
Test [4] has as its system COLO 205 colon.
The subject of test [5] is OVCAR-4 ovarian.
In test [6] the test system is T-47D breast.
The test system of test [7] is A549 NSCLC.
Test [8] has as its system NCI/ADR-RES ovarian.

Consider `CN(C)CCSS(=O)(=O)O`, for which the TGI in test [1] was > 100 µM; in test [2], 34.7 µM; in test [3] it was > 100 µM; in test [4] it was > 100 µM; in test [5], > 100 µM; in test [6], > 100 µM. Also, the TGI in test [7] and in test [8] was > 100 µM in each case.

With `Cc1nc2c(n1C)C(=O)c1ccccc1C2=O`, the GI50 in test [1] is 85.5 µM; in test [2] it was 18 µM; in test [3], > 100 µM; in test [4], 37.4 µM; in test [5] it was 43.5 µM; in test [6], 87.4 µM. The GI50 in test [7] was 21.5 µM; in test [8], 81.7 µM. Moreover, the TGI in test [1], in test [2], in test [3], in test [4], in test [5] and in test [6] was > 100 µM each time. Also, the TGI in test [7] and in test [8] was > 100 µM throughout.

`O=P1(S)OC[C@H]2O[C@@H]3[C@H](F)[C@@H]2OP(O)(=S)OC[C@H]2O[C@H]([C@H](F)[C@@H]2O1)n1cnc2c(ncnc21)NC/C=C/CNc1ncnc2c1ncn23` (stereo partly specified): the GI50 was 0.229 µM in test [1]; > 100 µM in test [2]; 5.08 µM in test [3]; > 100 µM in test [4]; 5.36 µM in test [5]; > 100 µM in test [6]. The GI50 in test [7] and in test [8] was > 100 µM throughout. For the same molecule, the TGI is > 39.9 µM in test [1]; > 100 µM in test [2]; > 100 µM in test [3]; > 100 µM in test [4]; > 100 µM in test [5]; > 100 µM in test [6]. Moreover, the TGI in test [7] and in test [8] was > 100 µM throughout.

Take `COc1cc2c(cc1O)CC1c3c(cc(O)c(OC)c3-2)CCN1C` (stereo unspecified): the TGI in test [1], in test [2], in test [3], in test [4], in test [5] and in test [6] was > 100 µM throughout. The TGI in test [7] and in test [8] was > 100 µM each time.

Consider `O=C(c1ccccc1)c1c(NCC(O)CN2CCOCC2)n(Cc2ccccc2)c(=O)n(Cc2ccccc2)c1=O` (stereo unspecified), for which the GI50 in test [1] was > 68 µM; in test [2] it was 42.9 µM; in test [3], > 29.9 µM; in test [4], 7.61 µM; in test [5], > 45.4 µM; in test [6] it was 1.69 µM. In addition, the GI50 in test [7] was 35.7 µM; in test [8], 2.17 µM. Further, the TGI is > 100 µM in test [1]; > 100 µM in test [2]; > 70.1 µM in test [3]; > 39.1 µM in test [4]; > 95.3 µM in test [5]; > 43.3 µM in test [6]. Besides, the TGI was > 100 µM in test [7] and > 27.4 µM in test [8].

Take `Cn1c(-c2ccc(/C=N/NC(=S)N/N=C/c3ccc(-c4c[n+]5ccsc5n4C)cc3)cc2)c[n+]2ccsc12`: the TGI in test [1], in test [2], in test [3], in test [4], in test [5] and in test [6] was > 100 µM throughout. The TGI in test [7] and in test [8] was > 100 µM each time.

Turning to `COc1ccc(-c2nc(-c3nc4ccc(F)cc4[nH]3)c3ccccn23)cc1`, the GI50 in test [1] is 10.4 µM; in test [2] it was 6.83 µM; in test [3], 10.3 µM; in test [4], 78.1 µM; in test [5], 6.92 µM; in test [6] it was 3.55 µM. Also, the GI50 in test [7] is 3.96 µM; in test [8], 6.5 µM. Also, the TGI in test [1] is 45.2 µM; in test [2], > 100 µM; in test [3] it was 37.3 µM; in test [4], > 100 µM; in test [5], > 100 µM; in test [6] it was 20.8 µM. Moreover, the figures for the TGI in test [7] and in test [8] were 28.4 µM and 36.5 µM, respectively.

As to `O=C(Oc1ccc(CO[N+](=O)[O-])cc1)c1ccccc1`, the GI50 in test [1] was 0.153 µM; in test [2] it was 0.239 µM; in test [3], 0.348 µM; in test [4] it was 0.128 µM; in test [5], 0.18 µM; in test [6] it was 0.137 µM. Also, the GI50 in test [7] is 1.23 µM; in test [8], 0.195 µM. In addition, the TGI turned out to be 0.287 µM in test [1]; 1.09 µM in test [2]; 1.3 µM in test [3]; 0.301 µM in test [4]; 0.381 µM in test [5]; 0.323 µM in test [6]. Further, the TGI in test [7] worked out at 2.49 µM; in test [8] it was 0.434 µM.

In the case of `Cn1cc(C2=C(c3cn(C)c4ccc(Cl)cc34)C(=O)NC2=O)c2ccccc21`, the GI50 was 1.28 µM in test [1]; 3.25 µM in test [2]; 2.87 µM in test [3]; 1.67 µM in test [4]; 6 µM in test [5]; 3.84 µM in test [6]. In addition, the GI50 in test [7] was 2.12 µM; in test [8], 3.82 µM. For the same molecule, the TGI in test [1] was 4.74 µM; in test [2] it was 8.9 µM; in test [3] it was > 21 µM; in test [4] it was 7.93 µM; in test [5], > 23.5 µM; in test [6], 13 µM. For the same molecule, the figures for the TGI in test [7] and in test [8] were 16.8 µM and > 23 µM, respectively.

With `Cc1nc2ccc(NC(=O)CCNC(=O)CCCc3ccc(CC(C(=O)O)C(=O)O)cc3)cc2s1`, the GI50 in test [1], in test [2], in test [3], in test [4], in test [5] and in test [6] was > 100 µM in each case. Further, the GI50 in test [7] and in test [8] was > 100 µM in each case. The TGI in test [1], in test [2], in test [3], in test [4], in test [5] and in test [6] was > 100 µM each time. Further, the TGI in test [7] and in test [8] was > 100 µM throughout.
